Source: patent US8507472B2 (priority 2010, dated 2013)
Like-named read-outs stand apart in the source and are kept apart here.

Legend:
Fusarium graminearum [1] = assay: microbe, parasite or virus in culture; type: cell-based
Alternaria solani = assay: Alternaria test (tomato)/protective; type: in vivo
In short: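 Treatment was protective: spray application at the stated rate came one day before spore inoculation. Incubation was 24 h at 22 °C and 100% humidity, then 20 °C and 96% humidity. Infection was rated at day 7 as % efficacy against the control, with 100% meaning no disease.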

Puccinia triticina = Puccinia triticina test (wheat)/protective; type: in vivo
In short: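 Protective test: young wheat plants sprayed with compound (dimethylacetamide/alkylaryl polyglycol ether formulation, water-diluted) at stated rate, then inoculated with Puccinia triticina spores once dry; 48 h at 20 °C, 100% RH, then greenhouse ~20 °C, ~80% RH. Efficacy scored 8 days post-inoculation, 0% = control, 100% = no infection.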

Sphaerotheca fuliginea = assay: Sphaerotheca test (cucumber)/protective; type: in vivo
In short: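 Infection was rated 7 days after spore inoculation as % efficacy (0% = control level, 100% = no disease). Inoculation followed 1 day after preventive spray of young cucumbers with compound formulated in N,N-dimethylformamide plus emulsifier and diluted with water; plants were held at 23 °C and 70% relative humidity.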

Phakopsora pachyrhizi = assay: Phakopsora test (Sojabohnen)/protective; type: in vivo; conditions: 250 ppm active compound, protective, evaluation 1 day after inoculation
Procedure: (§1) Solvent: 28.5 parts by weight of acetone
(§2) Emulsifier: 1.5 parts by weight of alkylaryl polyglycol ether
(§3) To produce a suitable preparation of active compound, 1 part by weight of active compound is mixed with the stated amount of solvent, and the concentrate is diluted with water and the stated amount of emulsifier to the desired concentration.
[…] 1 day after the treatment, the plants are inoculated with an aqueous spore suspension of Phakopsora pachyrhizi. The plants are then placed in a greenhouse at 80% relative atmospheric humidity and 20° C.
Evaluation is carried out 1 day after the inoculation. 0% means an efficacy which corresponds to that of the control, whereas an efficacy of 100% means that no infection is observed.

Uromyces appendiculatus = assay: Uromyces test (bean)/protective; type: in vivo
In short: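 Young bean plants sprayed with compound formulated in acetone/dimethylacetamide with emulsifier, inoculated with Uromyces appendiculatus spores after drying, held 1 day at ~20 °C and 100% humidity, then greenhouse ~21 °C, ~90% humidity. Efficacy scored 10 days post-inoculation, 0% = untreated control, 100% = no infection.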

[2] = log P determination by HPLC retention times (alkan-2-one calibration)
Phytophthora infestans = type: in vivo
DON/AcDON production = assay: microbe, parasite or virus in culture; type: cell-based, Fusarium graminearum; conditions: 7 days at 28° C.
Leptosphaeria nodorum = Leptosphaeria nodorum test (wheat)/protective; type: in vivo
In short: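 Young wheat plants were sprayed protectively, then inoculated 1 day later with L. nodorum spores and held 48 h at 100% humidity and 22° C. They were then kept in a greenhouse at 90% humidity and 22° C. Efficacy was scored 7-9 days post-inoculation, where 0% equals control and 100% means no infection.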

Pyrenophora teres = Pyrenophora teres test (barley)/protective; type: in vivo
In short: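 Efficacy, read 7-9 days after spore inoculation, runs from 0% (equal to untreated control) to 100% (no infection). Barley sprayed with water-diluted DMF/emulsifier formulation was inoculated one day later, incubated 48 h at 22° C. and 100% rel. humidity, then held at 20° C. and 80% humidity.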

Venturia inaequalis = assay: Venturia test (apple)/protective; type: in vivo; conditions: 100 ppm active compound, protective, evaluation 10 days after inoculation
In short: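 Efficacy read 10 days after inoculation, where 100% is no infection and 0% matches untreated control. Plants kept 1 day at ~20° C and 100% relative humidity after conidia inoculation, then ~21° C and ~90% humidity; inoculation followed drying of a protective spray of compound formulated in acetone/dimethylacetamide plus emulsifier and diluted with water.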

Botrytis cinerea = assay: Botrytis test (bean)/protective; type: in vivo; conditions: 100 ppm active compound, protective, evaluation 2 days after inoculation
In short: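 Protective spray test: leaves inoculated with two B. cinerea-colonized agar plugs after the spray dried, then incubated in darkness, ~20° C., 100% relative humidity. Formulation was acetone/dimethylacetamide with emulsifier, water-diluted. Lesion size rated 2 days post-inoculation as efficacy (0% matching control, 100% infection-free).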

Fusarium graminearum [3] = type: in vivo
[4] = test system: Fusarium nivale (var. majus); assay: Fusarium nivale (var. majus) test (wheat)/protective; type: in vivo; conditions: 1000 ppm active compound, protective, evaluation 5 days after inoculation
In short: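 Protective spray of young wheat plants at the stated rate (compound in dimethylacetamide with emulsifier, diluted in water), then inoculation with Fusarium nivale spores once dry. Plants kept at 10 °C and 100% humidity; scored 5 days after inoculation as % efficacy, where 0% equals untreated control and 100% means no infection.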

Gibberella zeae = conditions: in vivo
Rhizoctonia solani = assay: Rhizoctonia test (rice)/protective; type: in vivo; conditions: 250 ppm active compound, protective, evaluation 4 days after inoculation
Procedure: as §1, §2, §3
To test for protective activity, young rice plants are sprayed with the active compound preparation at the stated application rate. 1 day after the treatment, the plants are inoculated with hyphae of Rhizoctonia solani. The plants are then placed in a greenhouse at 100% relative atmospheric humidity and 25° C.
Evaluation is carried out 4 days after the inoculation. 0% means an efficacy which corresponds to that of the control, whereas an efficacy of 100% means that no infection is observed.

Cochliobolus miyabeanus = assay: Cochliobolus test (rice)/protective; type: in vivo; conditions: 250 ppm active compound, protective, evaluation 4 days after inoculation
Pyricularia oryzae = conditions: in vivo
Septoria tritici = Septoria tritici test (wheat)/protective; type: in vivo; conditions: in vivo
In short: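 Young wheat plants were sprayed protectively with compound (dimethylacetamide/emulsifier formulation diluted in water), then inoculated with Septoria tritici spores after drying. Incubation was 48 hours at 20° C and 100% humidity, then 60 hours at 15° C and 100% humidity, then greenhouse at about 15° C, 80% humidity; efficacy was scored 21 days post-inoculation (0% = control, 100% = no infection).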

[5] = 500 ppm active compound, tomato, protective, evaluation 7 days after inoculation

| SMILES | efficacy in % (Venturia inaequalis) [%] | efficacy in % (Botrytis cinerea) [%] | efficacy in % [4] [%] | % inhibition of the fungal growth of Fusarium graminearum at 50 μM (Fusarium graminearum [1]) [%] | efficacy in % (Alternaria solani; in vivo) [%] | efficacy in % (Puccinia triticina; in vivo) [%] | efficacy in % (Sphaerotheca fuliginea; in vivo) [%] | efficacy in % (Uromyces appendiculatus; in vivo) [%] | efficacy in % (Gibberella zeae) [%] | efficacy in % (Rhizoctonia solani) [%] | efficacy in % (Phytophthora infestans; in vivo) [%] | efficacy in % (Cochliobolus miyabeanus) [%] | % inhibition of DON/AcDON at 50 μM (DON/AcDON production) [%] | efficacy in % (Leptosphaeria nodorum; in vivo) [%] | efficacy in % (Pyrenophora teres; in vivo) [%] | efficacy in % (Fusarium graminearum [3]; in vivo) [%] | efficacy in % (Pyricularia oryzae) [%] | efficacy in % (Septoria tritici) [%] | further results |
| --- | --- | --- | --- | --- | --- | --- | --- | --- | --- | --- | --- | --- | --- | --- | --- | --- | --- | --- | --- |
| CCC(=O)Nc1cc(-c2c(-c3ccc(F)cc3)nn3c2CCCC3)ccn1 [Example 5, N-{4-[2-(4-Fluorophenyl)-4,5,6,7-tetrahydropyrazolo[1,5-a]pyridin-3-yl]pyridin-2-yl}propanamide] | 98 | 100 | 100 |  |  |  |  |  |  |  |  |  |  |  |  |  |  |  | inhibition at 50 µM (Fusarium graminearum [1]; Fusarium graminearum, 72 h, read-out: % inhibition of the fungal growth of Fusarium graminearum at 50 μM): 100%; efficacy in % (Alternaria solani; [5]): 100%; efficacy in % (Puccinia triticina; 1000 ppm active compound, wheat, protective, evaluation 8 days after inoculation): 100%; efficacy in % (Sphaerotheca fuliginea; 500 ppm active compound, cucumber, protective, evaluation 7 days after inoculation): 95%; efficacy in % (Phakopsora pachyrhizi): 80%; efficacy in % (Uromyces appendiculatus; 100 ppm active compound, bean, protective, evaluation 10 days after inoculation): 98%; chromatographic logP ([2]; log P(HCOOH), HCOOH, preparation examples in the text): 1.97; chromatographic logP ([2]; log P, values marked [a] in Table 1): 1.97; chromatographic logP ([2]; log P, values marked [b] in Table 1): 2.58; efficacy in % (Phytophthora infestans; [5]): 95%; inhibition at 50 µM (DON/AcDON production; Fusarium graminearum, 168 h): 99%; efficacy in % (Leptosphaeria nodorum; 500 ppm active compound, wheat, protective, evaluation 7-9 days after inoculation): 94%; efficacy in % (Pyrenophora teres; 500 ppm active compound, barley, protective, evaluation 7-9 days after inoculation): 100%; efficacy in % (Fusarium graminearum [3]; 1000 ppm active compound, barley, protective, evaluation 5 days after inoculation): 100% |
| CC(C)C(=O)Nc1cc(-c2c(-c3ccccc3)nn3c2CCCC3)ccn1 [Example 29] | 95 | 100 | 86 | 100 | 100 | 94 | 83 | 94 | 80 | 100 | 90 | 95 | 99 | 90 | 100 | 94 | 95 | 71 |  |
| CC(C)C(=O)Nc1cc(-c2c(-c3ccc(F)cc3)nn3c2CCCC3)ccn1 [Example 28] | 100 | 95 | 100 | 100 | 100 | 100 | 100 | 95 | 85 | 100 | 95 | 95 | 99 | 90 | 100 | 100 | 90 | 100 |  |
| O=C(Cc1ccccc1)Nc1cc(-c2c(-c3ccc(F)cc3)nn3c2CCCC3)ccn1 [Example 34] | 95 | 99 | 100 | 98 | 100 | 94 | 100 | 95 | 80 | 85 | 95 | 90 | 99 | 95 | 94 | 100 | 95 | 93 |  |
